In US20030018991A1, “Transformation and regeneration of wheat using increased copper levels” (priority 2001, published 2003):
Read-outs that look alike come from different tables or passages of the source.

Legend:
[1] = tested on: wheat scutellar tissues; assay: Recovery of transgenic wheat lines and plant escapes after particle bombardment, with 100 μM copper in regeneration medium; assay type: cell-based
[2] = tested on: wheat embryogenic calluses induced from scutellar tissues; assay: Shoot regeneration from embryogenic calluses on RZ regeneration medium supplemented with CuSO4; assay type: cell-based; details: for optimum range of copper concentration: number of plants regenerated per callus
Description: The primary culture explants were immature embryos or scutella. Wheat caryopses containing early-medium milk-stage grains with translucent embryos were harvested and surface-sterilised in 70% ethanol for 5 min and 0.5% hypochlorite solution for 15 min. Under aseptic conditions, embryos of approximately 0.5-1.0 mm length were isolated and either cultured entirely or the embryo axes were removed to produce isolated scutella. Thirty embryos/scutella were placed in the center (18 mm target circle) of a 90 mm Petri dish containing callus induction medium. The callus induction medium for embryos/scutellar tissues, called MD0.5, consisted of solidified (0.5% […], Sigma A3301) modified MS medium supplemented with 9% sucrose, 10 mg l^-1 AgNO3 and 0.5 mg l^-1 2,4-D (Rasco-Gaunt et al., 2001 J. Exp. Bot. 52 (357): 865-874). Embryos/scutella were placed with the embryo-axis side in contact with the medium. Cultures were incubated at 25±1° C. in darkness for approximately 24 hr before bombardment. Embryogenic calluses were transferred, for regeneration, to RZ regeneration medium and cultured under 12 h light (250 μE s^-1 m^-2, from cool white fluorescent tubes) at 25+1° C. for three weeks. The RZ regeneration medium, contained L salts, vitamins and myo-inositol, 3% w/v maltose, 0.1 mg l^-1 2,4-D and 5 mg l^-1 zeatin (Rasco-Gaunt and Barcelo, 1999 Plant Cell Culture Protocols. Methods in Molecular Biology series. Hall, RD ed. 111: 71-81, Humana Press, Totowa NJ) and CuSO4 at concentrations ranging from 0 to 1000 μM. The supplementation of silver nitrate in the range of 1-20 mg l^-1 is optional. Selection agents such as 2-6 mg l^-1 Glufosinate ammonium (Greyhound, United Kingdom) and 10-500 ppm sulfonylurea herbicide e.g. Nicosulfuron (DuPont, France) and Rimsulfuron (DuPont, France) were incorporated in RZ regeneration medium. A second three-week culture passage on the same medium was performed as required, with or without a selection agent. Following culture on RZ regeneration medium, plantlets were cultured for one or two three-week passages on R0 medium (RZ without hormones, AgNO3 and CuSO4 supplementation), with or without the selection agent. To determine the effects of increased copper concentration on shoot regeneration, embryogenic calluses were subcultured onto RZ regeneration medium (see Example 1) supplemented with CuSO4 at concentrations ranging from 0 to 1000 μM. Prior to transfer onto RZ regeneration medium, calluses were induced from scutellar tissues. Procedures for the growth of donor plant materials, isolation of explants and culture initiation are described in Example 1. Following culture on CuSO4 medium, the calluses were transferred to R0 medium (see Example 1). After three weeks, regeneration frequencies of calluses, average number of plant per callus, as well as shoot quality were noted. Regeneration frequency is calculated as the number of shoot-producing calluses divided by the total number of scutella isolated. Percent (%) regeneration is […] multiplied by 100.

[3] = tested on: callus cultures in hexaploid wheat; details: cited from earlier work
[4] = tested on: cultures of the anther of tetraploid (pasta) wheat; details: cited from earlier work
[5] = 100 μM copper, PPT selection, different genotypes (Example 4)

**Q.** For `O=S(=O)([O-])[O-].[Cu+2]` [CuSO4], which transformation frequency ([1]; 100 μM CuSO4, Cadenza and NH535, PPT and sulfonylurea selection systems) is on record?
**A.** improved

**Q.** And the “frequency of plant escapes” value [1, 5]?
**A.** did not have an important effect

**Q.** What about the “recovery of transformants / transformation efficiencies” value [1, 5] of the same compound?
**A.** improved

**Q.** And the plant escape frequency ([1]; 100 μM copper, plasmid pHP8092, PPT selection, varieties Cadenza and NH535)?
**A.** slightly higher

**Q.** What about the plant escapes ([1]; 100 μM copper, variety Cadenza, PPT selection, constructs p15629 and pAHC20) of the same compound?
**A.** clear reduction

**Q.** What about the escape frequency ([1]; 100 μM copper, variety NH535, sulfonylurea selection, construct pML146) of the same compound?
**A.** higher

**Q.** What about the shoot quality ([2]; copper levels up to 500 μM, Riband and Imp, versus control 0.1 μM copper) of the same compound?
**A.** vigorous and prolific

**Q.** What about the “optimum range of copper concentration” value ([2]; variety Eole) of the same compound?
**A.** 100 to 150 µM

**Q.** What about the “optimum range of copper concentration” value ([2]; variety NH535) of the same compound?
**A.** 100 to 200 µM

**Q.** What about the regeneration frequencies ([2]; wheat variety Eole, CuSO4 levels up to 300 μM) of the same compound?
**A.** 100%

**Q.** What about the Plant regeneration frequency ([2]; wheat variety Imp, CuSO4 levels up to 300 μM) of the same compound?
**A.** 100%

**Q.** What about the regeneration frequencies ([2]; wheat variety NH535, CuSO4 levels up to 300 μM) of the same compound?
**A.** 100%

**Q.** What about the Plant regeneration frequency ([2]; wheat variety Riband, levels up to 500 μM CuSO4) of the same compound?
**A.** 100%

**Q.** What about the “effect on regeneration frequency” value ([2]; while improving shoot quality) of the same compound?
**A.** no negative effect

**Q.** And the “regeneration rates relative to original MS copper level (0.1 μM)” value ([3]; 10 μM CuSO4, Purnhauser 1991)?
**A.** eight times higher

**Q.** What about the “optimum Cu level” value ([3]; "more detailed" studies cited in Purnhauser 1991) of the same compound?
**A.** 2 µM

**Q.** What about the “optimum Cu level” value ([3]; Purnhauser 1991 study) of the same compound?
**A.** 10 µM

**Q.** What about the “maximum regeneration frequency achieved” value ([3]; optimum 10 μM Cu, single breeding line, Purnhauser 1991) of the same compound?
**A.** 59%

**Q.** What about the “production of embryoid from anthers versus control treatment” value ([4]; 20 or 40 μM CuSO4, three of four genotypes) of the same compound?
**A.** increased

**Q.** What about the embryoid production ([4]; fourth genotype, all levels tested (10, 20 or 40 μM)) of the same compound?
**A.** reduced

**Q.** What about the “production of green plants versus control media” value ([4]; over the four genotypes, copper-containing media) of the same compound?
**A.** lower
